Data published in ChEMBL document CHEMBL1641539 (Bioorg Med Chem Lett, 2011).

Tests used:
[1] = target: Insulin receptor (Homo sapiens) (UniProt P06213); assay: Inhibition of INSR at 10 uM after 60 mins by TR-FRET assay
[2] = target: Cyclin-dependent kinase 1/cyclin B (Homo sapiens) (UniProt P06493+P14635+Q8WWL7+O95067); assay: Inhibition of CDK1/cyclin B at 10 uM after 60 mins by TR-FRET assay; format: protein-complex assay
[3] = target: Calcium/calmodulin-dependent protein kinase type II subunit alpha (Homo sapiens) (UniProt Q9UQM7); assay: Inhibition of CAMK2A at 10 uM after 60 mins by TR-FRET assay
[4] = target: RAC-alpha serine/threonine-protein kinase (Homo sapiens) (UniProt P31749); assay: Inhibition of AKT1 at 10 uM after 60 mins by TR-FRET assay
[5] = target: Serine/threonine-protein kinase PLK1 (Homo sapiens) (UniProt P53350); assay: Inhibition of PLK1 at 10 uM after 60 mins by TR-FRET assay
[6] = target: Receptor-interacting serine/threonine-protein kinase 2 (Homo sapiens) (UniProt O43353); assay: Inhibition of RIPK2 at 10 uM after 60 mins by TR-FRET assay
[7] = target: Tyrosine-protein kinase ABL1 (Homo sapiens) (UniProt P00519); assay: Inhibition of ABL1 at 10 uM after 60 mins by TR-FRET assay
[8] = target: Protein-tyrosine kinase 2-beta (Homo sapiens) (UniProt Q14289); assay: Inhibition of PTK2B at 10 uM after 60 mins by TR-FRET assay
[9] = target: Glycogen synthase kinase-3 beta (Homo sapiens) (UniProt P49841); assay: Inhibition of GSK3B at 10 uM after 60 mins by TR-FRET assay
[10] = target: Serine/threonine-protein kinase PLK3 (Homo sapiens) (UniProt Q9H4B4); assay: Inhibition of PLK3 at 10 uM after 60 mins by TR-FRET assay
[11] = target: T1, Mitogen-activated protein kinase 1 (Homo sapiens, UniProt P28482); assay: Inhibition of recombinant ERK2 after 60 mins by TR-FRET assay
[12] = target: Rho-associated protein kinase 2 (Homo sapiens) (UniProt O75116); assay: Inhibition of ROCK2 at 10 uM after 60 mins by TR-FRET assay
[13] = target: Receptor-type tyrosine-protein kinase FLT3 (Homo sapiens) (UniProt P36888); assay: Inhibition of FLT3 at 10 uM after 60 mins by TR-FRET assay
[14] = target: Leucine-rich repeat serine/threonine-protein kinase 2 (Homo sapiens) (UniProt Q5S007); assay: Inhibition of LRRK2 at 10 uM after 60 mins by TR-FRET assay
[15] = target: Protein kinase C beta type (Homo sapiens) (UniProt P05771); assay: Inhibition of PRKCB1 at 10 uM after 60 mins by TR-FRET assay
[16] = target: Mitogen-activated protein kinase 10 (Homo sapiens, UniProt P53779); assay: Inhibition of MAPK10 at 10 uM after 60 mins by TR-FRET assay
[17] = target: Proto-oncogene tyrosine-protein kinase receptor Ret (Homo sapiens) (UniProt P07949); assay: Inhibition of RET at 10 uM after 60 mins by TR-FRET assay
[18] = target: T1, Mitogen-activated protein kinase 1; assay: Inhibition of MAPK1 at 10 uM after 60 mins by TR-FRET assay
[19] = target: Mitogen-activated protein kinase 8 (Homo sapiens, UniProt P45983); assay: Inhibition of recombinant JNK1 after 60 mins by TR-FRET assay
[20] = target: Platelet-derived growth factor receptor alpha (Homo sapiens) (UniProt P16234); assay: Inhibition of PDGFRA at 10 uM after 60 mins by TR-FRET assay
[21] = target: Serine/threonine-protein kinase PLK2 (Homo sapiens) (UniProt Q9NYY3); assay: Inhibition of PLK2 at 10 uM after 60 mins by TR-FRET assay
[22] = target: Cyclin-dependent kinase 2/cyclin A (Homo sapiens) (UniProt P24941+P20248+P78396); assay: Inhibition of CDK2/cyclin A at 10 uM after 60 mins by TR-FRET assay; format: protein-complex assay
[23] = target: Dual specificity tyrosine-phosphorylation-regulated kinase 1B (Homo sapiens) (UniProt Q9Y463); assay: Inhibition of DYRK1B at 10 uM after 60 mins by TR-FRET assay
[24] = target: Receptor tyrosine-protein kinase erbB-4 (Homo sapiens) (UniProt Q15303); assay: Inhibition of ERBB4 at 10 uM after 60 mins by TR-FRET assay
[25] = target: T2, Serine/threonine-protein kinase 3 (Homo sapiens) (UniProt Q13188); assay: Inhibition of STK3 at 10 uM after 60 mins by TR-FRET assay
T2 sequence (whole entry): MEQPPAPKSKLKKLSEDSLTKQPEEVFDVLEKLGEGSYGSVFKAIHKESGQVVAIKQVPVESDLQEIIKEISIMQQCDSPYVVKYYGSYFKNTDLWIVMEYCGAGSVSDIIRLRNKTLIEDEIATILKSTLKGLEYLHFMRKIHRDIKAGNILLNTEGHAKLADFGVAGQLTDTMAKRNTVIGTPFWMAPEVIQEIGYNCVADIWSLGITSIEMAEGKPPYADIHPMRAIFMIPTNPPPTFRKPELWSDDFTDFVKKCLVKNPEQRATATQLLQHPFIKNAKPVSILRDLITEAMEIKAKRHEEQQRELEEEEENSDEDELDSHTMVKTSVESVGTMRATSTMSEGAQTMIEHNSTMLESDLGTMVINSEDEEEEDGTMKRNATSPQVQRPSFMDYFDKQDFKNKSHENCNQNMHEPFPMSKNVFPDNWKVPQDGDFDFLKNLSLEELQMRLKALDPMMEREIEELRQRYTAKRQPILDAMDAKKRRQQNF

[26] = target: PI3-kinase p110-alpha/p85-alpha (Homo sapiens) (UniProt P27986+P42336); assay: Inhibition of p110alpha/p85alpha at 10 uM after 60 mins by TR-FRET assay; format: protein-complex assay
[27] = system: RAF proto-oncogene serine/threonine-protein kinase (Homo sapiens), P04049 [Y340D,Y341D]; assay: Inhibition of RAF1 Y340D, Y341D mutant at 10 uM after 60 mins by TR-FRET assay
[28] = target: Tyrosine-protein kinase SYK (Homo sapiens) (UniProt P43405); assay: Inhibition of SYK at 10 uM after 60 mins by TR-FRET assay
[29] = target: Mitogen-activated protein kinase 9 (Homo sapiens, UniProt P45984); assay: Inhibition of recombinant JNK2 after 60 mins by TR-FRET assay
[30] = target: Cyclin-dependent kinase 5/CDK5 activator 1 (Homo sapiens) (UniProt Q00535+Q15078); assay: Inhibition of CDK5/p25 at 10 uM after 60 mins by TR-FRET assay; format: protein-complex assay
[31] = target: Macrophage colony-stimulating factor 1 receptor (Homo sapiens) (UniProt P07333); assay: Inhibition of CSF1R at 10 uM after 60 mins by TR-FRET assay

Serine/threonine-protein kinase PLK1 (Homo sapiens), sequence (P53350 whole entry): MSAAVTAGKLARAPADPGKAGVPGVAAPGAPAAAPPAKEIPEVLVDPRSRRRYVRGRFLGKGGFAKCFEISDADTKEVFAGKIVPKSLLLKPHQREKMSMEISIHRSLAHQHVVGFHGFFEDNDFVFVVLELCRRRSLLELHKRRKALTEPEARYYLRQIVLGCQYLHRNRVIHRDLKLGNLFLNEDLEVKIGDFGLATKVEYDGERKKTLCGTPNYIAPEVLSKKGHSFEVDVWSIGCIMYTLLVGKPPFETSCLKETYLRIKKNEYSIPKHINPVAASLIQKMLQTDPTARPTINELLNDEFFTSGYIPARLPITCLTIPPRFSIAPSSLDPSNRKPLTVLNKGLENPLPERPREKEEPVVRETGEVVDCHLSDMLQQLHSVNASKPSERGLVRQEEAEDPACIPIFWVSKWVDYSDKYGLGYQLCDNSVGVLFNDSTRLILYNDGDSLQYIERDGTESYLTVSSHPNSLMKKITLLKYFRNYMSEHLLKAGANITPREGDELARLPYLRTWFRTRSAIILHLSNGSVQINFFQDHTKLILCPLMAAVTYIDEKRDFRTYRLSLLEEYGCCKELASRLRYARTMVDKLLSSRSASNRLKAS
Leucine-rich repeat serine/threonine-protein kinase 2 (Homo sapiens), sequence (Q5S007 whole entry): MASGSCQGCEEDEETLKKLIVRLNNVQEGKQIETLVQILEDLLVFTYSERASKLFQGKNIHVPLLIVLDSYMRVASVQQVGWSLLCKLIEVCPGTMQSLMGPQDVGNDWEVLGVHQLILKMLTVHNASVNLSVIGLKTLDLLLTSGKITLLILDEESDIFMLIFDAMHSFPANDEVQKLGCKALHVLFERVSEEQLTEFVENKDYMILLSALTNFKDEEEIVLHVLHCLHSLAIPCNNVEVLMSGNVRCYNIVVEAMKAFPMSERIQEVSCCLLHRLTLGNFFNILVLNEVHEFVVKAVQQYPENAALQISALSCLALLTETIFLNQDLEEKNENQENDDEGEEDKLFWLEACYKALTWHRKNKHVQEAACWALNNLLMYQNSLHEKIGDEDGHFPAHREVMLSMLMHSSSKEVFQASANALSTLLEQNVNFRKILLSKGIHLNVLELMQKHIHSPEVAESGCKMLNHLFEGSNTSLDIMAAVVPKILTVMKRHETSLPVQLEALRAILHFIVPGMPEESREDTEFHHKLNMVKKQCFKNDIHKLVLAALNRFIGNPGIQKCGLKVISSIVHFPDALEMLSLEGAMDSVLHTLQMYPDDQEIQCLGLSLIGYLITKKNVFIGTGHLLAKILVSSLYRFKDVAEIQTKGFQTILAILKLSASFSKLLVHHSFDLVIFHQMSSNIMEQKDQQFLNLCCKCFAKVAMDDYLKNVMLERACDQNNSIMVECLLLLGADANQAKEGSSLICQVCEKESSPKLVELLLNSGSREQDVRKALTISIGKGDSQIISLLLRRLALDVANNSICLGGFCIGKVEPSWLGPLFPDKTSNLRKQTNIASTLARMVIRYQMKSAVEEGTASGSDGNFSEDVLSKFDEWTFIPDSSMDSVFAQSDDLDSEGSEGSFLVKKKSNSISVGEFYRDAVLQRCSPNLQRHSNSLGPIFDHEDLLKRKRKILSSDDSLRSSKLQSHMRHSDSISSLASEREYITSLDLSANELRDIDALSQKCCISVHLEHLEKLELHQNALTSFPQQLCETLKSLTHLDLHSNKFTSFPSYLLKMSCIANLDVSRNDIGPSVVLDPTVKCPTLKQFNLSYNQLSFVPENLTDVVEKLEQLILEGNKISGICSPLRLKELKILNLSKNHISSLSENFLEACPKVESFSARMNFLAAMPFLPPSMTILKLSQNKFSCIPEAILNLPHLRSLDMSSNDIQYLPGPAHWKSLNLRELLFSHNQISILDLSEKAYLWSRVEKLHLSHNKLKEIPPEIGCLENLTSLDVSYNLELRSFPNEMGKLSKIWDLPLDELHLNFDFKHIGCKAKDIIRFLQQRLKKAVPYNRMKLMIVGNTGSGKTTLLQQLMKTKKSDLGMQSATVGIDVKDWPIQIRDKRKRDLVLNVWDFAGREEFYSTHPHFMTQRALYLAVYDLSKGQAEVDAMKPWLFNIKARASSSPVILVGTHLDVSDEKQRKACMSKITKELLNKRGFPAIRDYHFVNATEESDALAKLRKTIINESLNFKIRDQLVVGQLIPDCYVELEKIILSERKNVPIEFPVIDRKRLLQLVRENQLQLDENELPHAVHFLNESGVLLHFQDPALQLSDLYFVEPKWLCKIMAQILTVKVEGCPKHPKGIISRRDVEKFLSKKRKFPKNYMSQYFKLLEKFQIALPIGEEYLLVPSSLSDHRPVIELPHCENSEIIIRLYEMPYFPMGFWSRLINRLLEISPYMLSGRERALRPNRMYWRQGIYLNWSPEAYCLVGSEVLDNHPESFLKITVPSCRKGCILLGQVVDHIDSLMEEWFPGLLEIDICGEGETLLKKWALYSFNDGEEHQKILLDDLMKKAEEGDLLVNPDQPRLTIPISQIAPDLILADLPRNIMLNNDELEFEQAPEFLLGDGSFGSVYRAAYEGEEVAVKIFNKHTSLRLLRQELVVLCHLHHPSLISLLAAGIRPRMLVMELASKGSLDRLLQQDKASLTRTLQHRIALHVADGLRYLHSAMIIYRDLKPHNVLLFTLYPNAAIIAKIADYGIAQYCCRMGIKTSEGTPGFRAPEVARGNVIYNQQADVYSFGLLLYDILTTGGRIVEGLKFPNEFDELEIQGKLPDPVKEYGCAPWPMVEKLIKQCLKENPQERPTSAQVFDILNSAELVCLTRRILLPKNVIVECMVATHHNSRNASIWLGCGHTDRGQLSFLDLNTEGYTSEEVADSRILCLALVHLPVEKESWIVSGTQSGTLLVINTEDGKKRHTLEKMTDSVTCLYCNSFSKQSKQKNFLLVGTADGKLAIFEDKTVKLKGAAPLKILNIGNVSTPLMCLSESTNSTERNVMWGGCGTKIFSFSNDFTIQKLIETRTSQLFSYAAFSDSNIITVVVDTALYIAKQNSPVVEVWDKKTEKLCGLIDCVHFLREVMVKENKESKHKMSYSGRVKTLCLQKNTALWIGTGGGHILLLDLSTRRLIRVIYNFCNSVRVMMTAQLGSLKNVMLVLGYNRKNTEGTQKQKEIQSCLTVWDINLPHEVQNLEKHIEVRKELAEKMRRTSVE
T1 sequence (P28482 whole entry): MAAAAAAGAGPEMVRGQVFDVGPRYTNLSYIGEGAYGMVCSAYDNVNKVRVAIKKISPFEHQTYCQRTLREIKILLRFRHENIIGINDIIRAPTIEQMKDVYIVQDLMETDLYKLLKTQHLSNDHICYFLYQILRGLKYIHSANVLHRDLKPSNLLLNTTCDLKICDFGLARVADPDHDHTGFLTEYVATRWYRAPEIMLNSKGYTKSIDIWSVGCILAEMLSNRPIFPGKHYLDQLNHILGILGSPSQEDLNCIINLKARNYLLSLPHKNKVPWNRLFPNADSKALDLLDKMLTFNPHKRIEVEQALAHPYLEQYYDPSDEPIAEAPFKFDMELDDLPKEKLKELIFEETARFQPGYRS
Glycogen synthase kinase-3 beta (Homo sapiens), sequence (P49841 whole entry, looked up): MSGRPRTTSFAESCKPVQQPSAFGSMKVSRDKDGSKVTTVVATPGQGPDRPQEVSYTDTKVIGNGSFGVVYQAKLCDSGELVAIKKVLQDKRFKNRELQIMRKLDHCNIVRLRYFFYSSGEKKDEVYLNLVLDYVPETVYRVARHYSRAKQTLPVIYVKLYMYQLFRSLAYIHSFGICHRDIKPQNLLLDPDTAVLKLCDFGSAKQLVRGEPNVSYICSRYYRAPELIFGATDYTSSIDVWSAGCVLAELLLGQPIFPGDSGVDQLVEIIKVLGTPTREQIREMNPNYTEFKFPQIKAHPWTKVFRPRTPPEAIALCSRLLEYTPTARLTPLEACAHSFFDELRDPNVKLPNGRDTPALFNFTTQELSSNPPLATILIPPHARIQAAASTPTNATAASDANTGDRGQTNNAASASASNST
Platelet-derived growth factor receptor alpha (Homo sapiens), sequence (P16234 whole entry): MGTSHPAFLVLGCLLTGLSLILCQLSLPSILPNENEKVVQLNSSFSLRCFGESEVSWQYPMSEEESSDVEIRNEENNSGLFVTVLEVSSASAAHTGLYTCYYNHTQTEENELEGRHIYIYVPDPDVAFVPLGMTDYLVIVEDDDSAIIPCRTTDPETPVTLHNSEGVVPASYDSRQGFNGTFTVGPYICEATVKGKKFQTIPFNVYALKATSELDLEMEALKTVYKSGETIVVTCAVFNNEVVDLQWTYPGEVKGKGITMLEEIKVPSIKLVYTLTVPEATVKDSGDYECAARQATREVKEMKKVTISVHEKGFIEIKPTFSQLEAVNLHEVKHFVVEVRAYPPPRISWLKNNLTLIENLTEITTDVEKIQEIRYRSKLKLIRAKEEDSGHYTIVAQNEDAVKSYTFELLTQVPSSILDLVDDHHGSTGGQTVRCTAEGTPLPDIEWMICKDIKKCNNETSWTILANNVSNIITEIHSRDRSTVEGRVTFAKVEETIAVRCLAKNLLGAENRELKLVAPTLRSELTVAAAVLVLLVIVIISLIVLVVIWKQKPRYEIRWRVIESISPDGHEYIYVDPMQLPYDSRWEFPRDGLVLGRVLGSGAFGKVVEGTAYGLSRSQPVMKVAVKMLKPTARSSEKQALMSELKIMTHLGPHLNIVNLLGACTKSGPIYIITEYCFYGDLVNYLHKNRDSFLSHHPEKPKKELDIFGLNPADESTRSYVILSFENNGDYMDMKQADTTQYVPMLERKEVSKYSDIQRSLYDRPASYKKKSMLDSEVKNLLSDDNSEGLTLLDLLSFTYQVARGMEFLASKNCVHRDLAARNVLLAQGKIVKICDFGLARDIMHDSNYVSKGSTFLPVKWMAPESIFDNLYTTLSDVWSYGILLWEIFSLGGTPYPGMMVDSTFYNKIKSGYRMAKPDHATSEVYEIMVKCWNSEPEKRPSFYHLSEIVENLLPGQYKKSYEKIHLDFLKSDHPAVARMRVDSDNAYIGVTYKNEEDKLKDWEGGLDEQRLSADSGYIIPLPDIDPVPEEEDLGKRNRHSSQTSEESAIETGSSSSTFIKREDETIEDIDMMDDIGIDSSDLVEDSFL

## O=c1n(Cc2ccncc2)nc(-c2ccnc(NC3CCCCC3)c2)n1-c1ccc2ccccc2c1
[1]
  inhibition: 2%
[2]
  inhibition: 8%
[3]
  inhibition: 2%
[4]
  inhibition: -2%
[5]
  inhibition: 2%
[6]
  inhibition: 8%
[7]
  inhibition: -2%
[8]
  inhibition: 6%
[9]
  inhibition: 13%
[10]
  inhibition: -5%
[11]
  IC50: > 50 µM
[12]
  inhibition: 6%
[13]
  inhibition: 20%
[14]
  inhibition: -9%
[15]
  inhibition: 19%
[16]
  inhibition: 76%
[17]
  inhibition: 3%
[18]
  inhibition: 5%
[19]
  IC50: 700 nM
[20]
  inhibition: 1%
[21]
  inhibition: 0%
[22]
  inhibition: 3%
[23]
  inhibition: 18%
[24]
  inhibition: -3%
[25]
  inhibition: 5%
[26]
  inhibition: 6%
[27]
  inhibition: -2%
[28]
  inhibition: 7%
[29]
  IC50: 97 nM
[30]
  inhibition: -3%
[31]
  inhibition: 1%

## O=c1[nH]nc(-c2ccnc(NC3CCOCC3)c2)n1-c1ccc2ccccc2c1
[1]
  inhibition: 8%
[2]
  inhibition: 10%
[3]
  inhibition: 11%
[4]
  inhibition: 3%
[5]
  inhibition: 19%
[6]
  inhibition: 6%
[7]
  inhibition: 5%
[8]
  inhibition: 2%
[9]
  inhibition: 73%
[10]
  inhibition: 13%
[11]
  IC50: > 50 µM
[12]
  inhibition: 10%
[13]
  inhibition: 32%
[14]
  inhibition: 25%
[15]
  inhibition: 11%
[16]
  inhibition: 73%
[17]
  inhibition: 11%
[18]
  inhibition: 5%
[19]
  IC50: 1800 nM
[20]
  inhibition: 1%
[21]
  inhibition: 33%
[22]
  inhibition: 35%
[23]
  inhibition: 22%
[24]
  inhibition: 3%
[25]
  inhibition: -4%
[26]
  inhibition: 49%
[27]
  inhibition: 16%
[28]
  inhibition: 14%
[29]
  IC50: 250 nM
[30]
  inhibition: 24%
[31]
  inhibition: 74%

## O=c1n(Cc2ccccn2)nc(-c2ccnc(NC3CCOCC3)c2)n1-c1ccc2ccccc2c1
[1]
  inhibition: 7%
[2]
  inhibition: 2%
[3]
  inhibition: 8%
[4]
  inhibition: -5%
[5]
  inhibition: 10%
[6]
  inhibition: 1%
[7]
  inhibition: 1%
[8]
  inhibition: -7%
[9]
  inhibition: 7%
[10]
  inhibition: 5%
[11]
  IC50: > 50 µM
[12]
  inhibition: 5%
[13]
  inhibition: 11%
[14]
  inhibition: 7%
[15]
  inhibition: 7%
[16]
  inhibition: 72%
[17]
  inhibition: -1%
[18]
  inhibition: -1%
[19]
  IC50: 990 nM
[20]
  inhibition: -10%
[21]
  inhibition: 5%
[22]
  inhibition: -6%
[23]
  inhibition: 1%
[24]
  inhibition: -3%
[25]
  inhibition: -9%
[26]
  inhibition: -5%
[27]
  inhibition: 0%
[28]
  inhibition: 1%
[29]
  IC50: 93 nM
[30]
  inhibition: 0%
[31]
  inhibition: 4%

## O=c1n(C2CCOCC2)nc(-c2ccnc(NC3CCCCC3)c2)n1-c1ccc2ccccc2c1
[1]
  inhibition: 10%
[2]
  inhibition: 4%
[3]
  inhibition: 19%
[4]
  inhibition: 0%
[5]
  inhibition: 5%
[6]
  inhibition: 13%
[7]
  inhibition: 5%
[8]
  inhibition: -2%
[9]
  inhibition: 15%
[10]
  inhibition: 32%
[11]
  IC50: > 50 µM
[12]
  inhibition: 9%
[13]
  inhibition: 8%
[14]
  inhibition: 7%
[15]
  inhibition: 7%
[16]
  inhibition: 86%
[17]
  inhibition: 10%
[18]
  inhibition: -1%
[19]
  IC50: 420 nM
[20]
  inhibition: 7%
[21]
  inhibition: 26%
[22]
  inhibition: 0%
[23]
  inhibition: 39%
[24]
  inhibition: 3%
[25]
  inhibition: -10%
[26]
  inhibition: 0%
[27]
  inhibition: -3%
[28]
  inhibition: 26%
[29]
  IC50: 97 nM
[30]
  inhibition: 3%
[31]
  inhibition: 7%

## O=c1[nH]nc(-c2ccnc(NC3CCCCC3)c2)n1-c1ccc2ccccc2c1
[1]
  inhibition: 5%
[2]
  inhibition: 5%
[3]
  inhibition: 22%
[4]
  inhibition: -1%
[5]
  inhibition: 12%
[6]
  inhibition: 6%
[7]
  inhibition: 4%
[8]
  inhibition: -3%
[9]
  inhibition: 38%
[10]
  inhibition: 17%
[11]
  IC50: > 50 µM
[12]
  inhibition: 15%
[13]
  inhibition: 12%
[14]
  inhibition: 11%
[15]
  inhibition: 2%
[16]
  inhibition: 72%
[17]
  inhibition: 4%
[18]
  inhibition: 1%
[19]
  IC50: 1000 nM
[20]
  inhibition: 1%
[21]
  inhibition: 15%
[22]
  inhibition: 2%
[23]
  inhibition: 20%
[24]
  inhibition: 2%
[25]
  inhibition: -9%
[26]
  inhibition: 29%
[27]
  inhibition: 13%
[28]
  inhibition: 8%
[29]
  IC50: 69 nM
[30]
  inhibition: 8%
[31]
  inhibition: -1%

## O=c1[nH]nc(-c2ccnc(NC3CCCOC3)c2)n1-c1ccc2ccccc2c1 (stereo unspecified)
[1]
  inhibition: 18%
[2]
  inhibition: 4%
[3]
  inhibition: 38%
[4]
  inhibition: 0%
[5]
  inhibition: 27%
[6]
  inhibition: 1%
[7]
  inhibition: 17%
[8]
  inhibition: 11%
[9]
  inhibition: 81%
[10]
  inhibition: 79%
[11]
  IC50: 22 µM
[12]
  inhibition: 8%
[13]
  inhibition: 23%
[14]
  inhibition: 29%
[15]
  inhibition: 10%
[16]
  inhibition: 81%
[17]
  inhibition: 37%
[18]
  inhibition: 1%
[19]
  IC50: 740 nM
[20]
  inhibition: 12%
[21]
  inhibition: 62%
[22]
  inhibition: 3%
[23]
  inhibition: 76%
[24]
  inhibition: 16%
[25]
  inhibition: -5%
[26]
  inhibition: 34%
[27]
  inhibition: 0%
[28]
  inhibition: 70%
[29]
  IC50: 130 nM
[30]
  inhibition: 15%
[31]
  inhibition: 60%
